# From patent US4647574A, “Hypoglycemic hydantoin derivatives” (Nippon Zoki Pharmaceutical Co., Ltd., priority 1984, dated 1987)
# Legend:
# Blood Glucose = test: Hypoglycemic effect (modified method by Dulin et al.); format: in vivo, rat (Sprague-Dawley-strain male); conditions: 2 hours; for Blood Glucose Level: glucose-loaded fasted rats, control 134.6 ± 2.8
# Experimental: Groups of 10 Sprague-Dawley-strain male rats (weighing about 250 g each) which had fasted for 18 hours were used for measurement of hypoglycemic effect according to the modified method by Dulin et al. (Dulin et al, Proc. Soc. Expl. Med., 107, 245 (1961)). That is, 0.5 ml/100 g of 20% aqueous solution of glucose was subcutaneously administered into the backs of rats to prevent a decrease in blood glucose level because of the fasting. […] The obtained blood sample was allowed to stand for 30 minutes to complete the coagulation and was centrifuged to obtain the serum. Blood sugar level was measured according to the mutalotase GOD method (Trinder, Ann. Clin. Biochem., vol. 6, p. 24 ([…])).
# serum free fatty acid = test: Hypolipidemic effect: serum free fatty acid; format: in vivo, rat (Wister strain male); conditions: 100 mg/kg oral, 2 hours, fasted rats; for Serum Fatty Acid Decrease: vs control; for Serum Fatty Acid Level: control 0.51 ± 0.44
# Experimental: (§1) The test drugs were orally administered to groups of 6 Wisterstrain male rats (each weighing approximately 210-250 g) which had fasted for 20 hours. 2 hours later, the serum was obtained in the same manner as described in (2). Serum triglyceride was measured by GPO-p-chlorophenol colorimetric determination (Richard et al., Clinical Chemistry, vol. 24, p. 1343 (1978)) and serum free fatty acid was measured according to the Acyl CoA Synthetase-Acyl CoA Oxidase method (Shimizu, et al., Biochem. Biophys. Res. Commun., vol. 91, p. 108 (1979)).
# sodium in urine = test: Diuretic effect: sodium in urine in mice; format: in vivo, mouse; conditions: subcutaneous, up until 2 hours after the administration
# urine sugar = test: Urine sugar in glucose loaded rats; format: in vivo, rat; conditions: 200 mg/kg oral
# Experimental: In addition, 200 mg/kg of the compound 1 of the present invention were orally administered to glucose loaded rats and the urine sugar was measured.
# Serum Triglyceride = test: Hypolipidemic effect: serum triglyceride; format: in vivo, rat (Wister strain male); conditions: 100 mg/kg oral, 2 hours, fasted rats; for Serum Triglyceride Decrease: vs control; for Serum Triglyceride Level: control 33.5 ± 2.9
# Experimental: as §1
# excreted sodium = test: Diuretic effect: excreted sodium in rats (Lipschitz method); format: in vivo, rat (Long-Evans strain male); conditions: 20 mg/kg oral, within 1 day
# Experimental: 20 mg/kg of the compound 1 of the present invention were orally administered to Long-Evans strain male rats (weighing about 130-150 g each), and the total amount of excreted sodium within 1 day was then measured according to the method by Lipschitz (JPFT, Vol. 79, p. 97 (1943)).
# [1] = Rattus norvegicus, 50 mg/kg oral, vs control, read-out: Blood Glucose Decrease
# [2] = Rattus norvegicus, 200 mg/kg oral, vs control, read-out: Blood Glucose Decrease
smiles,measurement,setting,value
"CCCCNC(=O)NS(=O)(=O)c1ccc(C)cc1 [Tolubutamide, reference compound]",Blood Glucose Level,Blood Glucose; 50 mg/kg oral,63.4 ± 4.7 mg/dL
same,Blood Glucose Level,Blood Glucose; 100 mg/kg oral,53.0 ± 4.5 mg/dL
same,inhibition in vivo at 50 mg/kg,Blood Glucose; [1],52.9%
same,inhibition in vivo at 100 mg/kg,"Blood Glucose; Rattus norvegicus, 100 mg/kg oral, vs control, read-out: Blood Glucose Decrease",60.6%
"CN1C(=O)NC(=O)C1O (stereo not shown) [compound 1, 5-hydroxy-1-methylhydantoin]",Serum Fatty Acid Decrease,serum free fatty acid,66%
same,Serum Fatty Acid Level,serum free fatty acid,0.17 ± 0.01 mEq/dl
same,increase in the amount of sodium in urine as compared with the control group,sodium in urine,50.5%
same,"urine sugar, difference between medicated and control groups",urine sugar,No difference was found between the medicated and control groups
same,Serum Triglyceride Decrease,Serum Triglyceride,68%
same,Serum Triglyceride Level,Serum Triglyceride,10.7 ± 1.3 mg/dL
same,"total amount of excreted sodium, ratio to control group",excreted sodium,1.8 times
same,Blood Glucose Level,Blood Glucose; 25 mg/kg oral,89.0 ± 4.1 mg/dL
same,Blood Glucose Level,Blood Glucose; 50 mg/kg oral,87.1 ± 3.3 mg/dL
same,Blood Glucose Level,Blood Glucose; 200 mg/kg oral,81.8 ± 4.0 mg/dL
same,inhibition in vivo at 25 mg/kg,"Blood Glucose; Rattus norvegicus, 25 mg/kg oral, vs control, read-out: Blood Glucose Decrease",33.9%
same,inhibition in vivo at 50 mg/kg,Blood Glucose; [1],35.3%
same,inhibition in vivo at 200 mg/kg,Blood Glucose; [2],39.2%
"CN1C(=O)NC(O)C1=O (stereo not shown) [compound 2, 5-hydroxy-3-methylhydantoin]",Serum Fatty Acid Decrease,serum free fatty acid,45%
same,Serum Fatty Acid Level,serum free fatty acid,0.28 ± 0.04 mEq/dl
same,Serum Triglyceride Decrease,Serum Triglyceride,59%
same,Serum Triglyceride Level,Serum Triglyceride,13.8 ± 0.9 mg/dL
same,Blood Glucose Level,Blood Glucose; 200 mg/kg oral,115.5 ± 3.9 mg/dL
same,inhibition in vivo at 200 mg/kg,Blood Glucose; [2],14.2%
"CCN1C(=O)NC(=O)C1O (stereo not shown) [compound 3, 5-hydroxy-1-ethylhydantoin]",Blood Glucose Level,Blood Glucose; 200 mg/kg oral,76.0 ± 3.8 mg/dL
same,inhibition in vivo at 200 mg/kg,Blood Glucose; [2],43.5%
"CCCCN1C(=O)NC(=O)C1O (stereo not shown) [compound 4, 5-hydroxy-1-butylhydantoin]",Serum Fatty Acid Decrease,serum free fatty acid,41%
same,Serum Fatty Acid Level,serum free fatty acid,0.30 ± 0.01 mEq/dl
same,Serum Triglyceride Decrease,Serum Triglyceride,54%
same,Serum Triglyceride Level,Serum Triglyceride,15.3 ± 2.4 mg/dL
same,Blood Glucose Level,Blood Glucose; 200 mg/kg oral,82.6 ± 3.6 mg/dL
same,inhibition in vivo at 200 mg/kg,Blood Glucose; [2],38.6%
"COC1C(=O)NC(=O)N1C (stereo not shown) [compound 5, 5-methoxy-1-methylhydantoin]",Blood Glucose Level,Blood Glucose; 200 mg/kg oral,109.4 ± 2.3 mg/dL
same,inhibition in vivo at 200 mg/kg,Blood Glucose; [2],18.7%
"O=C1NC(=O)N(C2CCCC2)C1O (stereo not shown) [compound 15, 5-hydroxy-1-cyclopentylhydantoin]",Blood Glucose Level,Blood Glucose; 200 mg/kg oral,85.3 ± 5.9 mg/dL
same,inhibition in vivo at 200 mg/kg,Blood Glucose; [2],36.6%
"O=C1NC(=O)N(C2CCCCC2)C1O (stereo not shown) [compound 16, 5-hydroxy-1-cyclohexylhydantoin]",Blood Glucose Level,Blood Glucose; 200 mg/kg oral,89.6 ± 2.7 mg/dL
same,inhibition in vivo at 200 mg/kg,Blood Glucose; [2],33.4%
"CN1CC(=O)NC1=O [compound 23, 1methylhydantoin]",Serum Fatty Acid Decrease,serum free fatty acid,43%
same,Serum Fatty Acid Level,serum free fatty acid,0.29 ± 0.01 mEq/dl
same,Serum Triglyceride Decrease,Serum Triglyceride,45%
same,Serum Triglyceride Level,Serum Triglyceride,18.5 ± 1.8 mg/dL
same,Blood Glucose Level,Blood Glucose; 200 mg/kg oral,106.9 ± 3.9 mg/dL
same,inhibition in vivo at 200 mg/kg,Blood Glucose; [2],20.6%
